Laboratory results published in EPA's ToxValDB 9.5 (doi:10.2903/j.efsa.2009.204r).
≈ marks a conversion by molar mass, not a printed value.

How the values were obtained:
Cyprinus carpio = conditions: acute; duration: 96 hours; mortality
Folsomia candida = conditions: chronic/long-term; duration: 28 days
Apis mellifera = conditions: acute; duration: 48 hours; oral; unspecified; mortality
Anas platyrhynchos = conditions: short-term; oral; feed; mortality
Daphnia magna = conditions: chronic/long-term; duration: 21 days; reproduction
Mus musculus = conditions: oral
Oncorhynchus mykiss = conditions: chronic/long-term; duration: 28 days; growth
Typhlodromus pyri = assay: LR50; higher = less toxic; conditions: acute; duration: 7 days; mortality

CC(C)=NOCCOC(=O)[C@@H](C)Oc1ccc(Oc2cnc3cc(Cl)ccc3n2)cc1 [Propaquizafop]
LD50 (Colinus virginianus; acute, oral, mortality): > 2000 mg/kg | NOEC (Colinus virginianus; reproduction developmental): ≥ 20.2 mg/kg-day | LC50 (Tagia sp.; acute, mortality): > 1000 mg/kg | NOEC (Tagia sp.; chronic/long-term, duration: 56 days): 3.9 mg/kg | LC50 (Cyprinus carpio): 0.19 µg/mL (≈ 0.428 µM) | NOEC (Folsomia candida): 5.4 mg/kg | LD50 (Apis mellifera): > 20 µg/piece | LC50 (Anas platyrhynchos): > 827 mg/kg-day | NOEC (Daphnia magna): 0.44 mg/L | LD50 (Mus musculus; acute, mortality): 3010 mg/kg | NOAEL (Mus musculus; chronic, duration: 18 months, clinical chemistry): 1.5 mg/kg-day | NOAEL (Rattus norvegicus; reproduction developmental, reproduction): 15 mg/kg-day | NOAEL (Rattus norvegicus; subchronic, duration: 90 days, oral): 6.25 mg/kg-day | NOEC (Oncorhynchus mykiss): 0.019 mg/L | LR50 (Typhlodromus pyri): > 1.4 g/ha
